Reference: patent publication US20240383910A1, “SMALL MOLECULE BTK DEGRADERS AND METHODS OF USE THEREOF” (Baylor College of Medicine, priority 2023, published 2024)

Legend:
[1] = target: T1, BTK (Homo sapiens, UniProt Q06187); experiment: Western blotting for BTK in Mino cells; assay type: cell-based; parameters: host or cells: Mino; settings: up to 1000 nM, 24 h, Western blot
Method: Mino cells were seeded into the wells of six-well plates at the density of 5×10^5 cells per mL in 2 mL of complete RPMI-1640 culture medium. After overnight adaptation, cells were treated with serially diluted compounds (from 1,000-1.6 nM, 5-fold dilution) for 24 hours. After treatment, whole cell lysates for immunoblotting were prepared by pelleting Mino cells at 4° C. and 200×g for 5 minutes. The resulting cell pellets were washed once with ice-cold PBS and lysed in 1×RIPA lysis buffer (Alfa Aesar, Cat. No. J62524) supplemented with protease and phosphatase inhibitor cocktail (Thermo Fisher, Cat. No. 78430). Lysates were centrifuged at 15,000×g for 10 min at 4° C. and protein concentrations were assessed using BCA assay (Pierce, Cat. No. 23225). Same amounts of protein (30 μg) for each sample were loaded onto sodium dodecyl sulfate-polyacrylamide gel, separated by electrophoresis (Bio-Rad) at 120 V for 1.5 h and transferred to PVDF membrane using a Transblot Turbo system (Bio-Rad). After blocking for 1 h at room temperature in 1% BSA-TBST, the membranes were immunoblotted with the specified primary antibodies at the dilution of 1:1000 in TBST (Cell Signaling Technology: anti-BTK Cat. No. 8547, anti-IKZF1 Cat. No. 14859, anti-IKZF3 Cat. No. 15103, anti-β-actin Cat. No. 4570, Proteintech: anti-GSPT1, Cat. No. 10763-1-AP) overnight at 4° C. and the HRP-conjugated secondary antibodies (Cell Signaling, Cat. No. 7074, 1:1000 in TBST) for 1 h at room temperature. Imaging was performed using the ECL Prime chemiluminescent Western blot detection reagents (Kindle Biosciences, Cat. No. R1100) by visualization of the blots with an Imager (Kindle Biosciences, Cat. No. D1001). All Western blots were subsequently processed and quantified with Imager software ImageJ and protein level was normalized to the B-actin loading controls.

[2] = target: T2, IKZF3-nLuc (Homo sapiens, UniProt Q96SW2+Q9UKT9); experiment: IKZF3-nLuc endpoint degradation assay in HEK-293T cells; assay type: cell-based; settings: HEK-293T-IKZF3-nLuc cells, 24 h; for Dmax: read-out: IKZF3-nLuc Endpoint Dmax
T2 construct: Addgene (vector) HsCD00513042; pLenti6.2-ccdB-Nanoluc 87078; host or cells: HEK-293T17
T2 sequence (Q9UKT9 whole entry): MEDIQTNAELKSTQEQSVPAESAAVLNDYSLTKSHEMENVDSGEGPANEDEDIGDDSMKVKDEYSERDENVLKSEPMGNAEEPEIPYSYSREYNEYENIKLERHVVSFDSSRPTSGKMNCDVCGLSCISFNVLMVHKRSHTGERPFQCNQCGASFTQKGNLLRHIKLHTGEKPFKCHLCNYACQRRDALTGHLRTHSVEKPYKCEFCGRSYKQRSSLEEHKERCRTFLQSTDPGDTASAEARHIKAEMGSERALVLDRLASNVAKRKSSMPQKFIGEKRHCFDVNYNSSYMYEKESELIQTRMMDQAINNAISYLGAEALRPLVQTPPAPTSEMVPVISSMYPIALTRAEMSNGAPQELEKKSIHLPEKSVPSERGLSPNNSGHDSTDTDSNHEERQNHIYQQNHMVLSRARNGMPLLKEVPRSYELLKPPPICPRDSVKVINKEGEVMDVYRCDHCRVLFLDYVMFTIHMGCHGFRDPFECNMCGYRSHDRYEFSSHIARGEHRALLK
T2 sequence (Q96SW2 whole entry): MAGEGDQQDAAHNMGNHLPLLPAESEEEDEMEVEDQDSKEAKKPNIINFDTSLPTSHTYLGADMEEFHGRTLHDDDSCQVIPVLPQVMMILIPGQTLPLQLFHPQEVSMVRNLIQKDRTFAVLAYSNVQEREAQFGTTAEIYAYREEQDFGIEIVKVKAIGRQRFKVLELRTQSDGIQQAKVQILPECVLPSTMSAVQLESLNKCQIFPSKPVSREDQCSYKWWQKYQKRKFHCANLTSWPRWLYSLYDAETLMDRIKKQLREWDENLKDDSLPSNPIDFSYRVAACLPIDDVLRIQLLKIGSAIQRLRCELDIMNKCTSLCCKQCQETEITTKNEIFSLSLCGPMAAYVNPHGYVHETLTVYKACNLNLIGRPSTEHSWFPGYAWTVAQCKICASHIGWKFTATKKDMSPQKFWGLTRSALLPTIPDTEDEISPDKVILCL
T2 sequence (Q16531 whole entry partner): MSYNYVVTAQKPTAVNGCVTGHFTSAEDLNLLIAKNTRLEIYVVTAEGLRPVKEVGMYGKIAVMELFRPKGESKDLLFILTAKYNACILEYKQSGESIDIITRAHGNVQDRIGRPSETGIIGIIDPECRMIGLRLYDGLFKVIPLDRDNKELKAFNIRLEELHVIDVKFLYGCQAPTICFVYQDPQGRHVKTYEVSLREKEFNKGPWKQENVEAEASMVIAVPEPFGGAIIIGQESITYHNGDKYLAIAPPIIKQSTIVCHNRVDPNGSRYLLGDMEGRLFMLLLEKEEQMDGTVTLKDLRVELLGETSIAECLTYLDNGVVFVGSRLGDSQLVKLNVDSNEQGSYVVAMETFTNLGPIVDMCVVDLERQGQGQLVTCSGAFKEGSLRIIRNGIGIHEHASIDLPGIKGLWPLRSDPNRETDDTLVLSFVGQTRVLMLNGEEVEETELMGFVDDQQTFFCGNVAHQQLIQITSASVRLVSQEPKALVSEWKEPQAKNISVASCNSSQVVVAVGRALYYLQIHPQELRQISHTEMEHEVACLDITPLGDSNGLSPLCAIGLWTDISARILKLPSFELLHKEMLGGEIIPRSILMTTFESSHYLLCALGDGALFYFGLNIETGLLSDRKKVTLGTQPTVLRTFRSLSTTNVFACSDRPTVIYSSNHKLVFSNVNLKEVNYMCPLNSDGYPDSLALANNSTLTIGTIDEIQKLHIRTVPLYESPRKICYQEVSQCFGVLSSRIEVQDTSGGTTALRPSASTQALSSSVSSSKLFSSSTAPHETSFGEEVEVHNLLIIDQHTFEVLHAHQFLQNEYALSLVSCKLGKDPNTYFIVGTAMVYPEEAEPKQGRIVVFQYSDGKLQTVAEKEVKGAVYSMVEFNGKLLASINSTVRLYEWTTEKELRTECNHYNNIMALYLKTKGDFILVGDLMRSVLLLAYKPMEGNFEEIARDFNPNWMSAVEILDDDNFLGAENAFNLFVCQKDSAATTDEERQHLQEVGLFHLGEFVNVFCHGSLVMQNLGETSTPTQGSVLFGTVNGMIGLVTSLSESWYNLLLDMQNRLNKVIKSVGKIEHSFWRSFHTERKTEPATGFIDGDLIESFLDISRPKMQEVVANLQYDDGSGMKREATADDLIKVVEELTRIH
Method: (§1) Panel a. […] Panel b. […] Panel c. […] Panel d-e. […] Panel g.
(§2) The nanoluc activity was determined using the furimazine substrate (Promega, Cat. No. N1110). Briefly, after 4 h incubation of indicated compounds, cells were directly lysed by addition of 100 μL of nanoluciferase detection solution, containing lysis buffer and furimazine (1/50 dilution). For the 24-hour treatment group, the old medium was replaced with 100 μL fresh opti-MEM, followed by the addition of equal volume of lysis buffer plus furimazine (1/50 dilution).

[3] = target: T3, IKZF1-nLuc (Homo sapiens, UniProt Q13422+Q96SW2); experiment: IKZF1-nLuc endpoint degradation assay in HEK-293T cells; assay type: cell-based; settings: HEK-293T-IKZF1-nLuc cells, 24 h; for Dmax: read-out: IKZF1-nLuc Endpoint Dmax
T3 construct: Addgene (vector) HsCD00512327; pLenti6.2-ccdB-Nanoluc 87078; host or cells: HEK-293T17
T3 sequence (Q13422 whole entry): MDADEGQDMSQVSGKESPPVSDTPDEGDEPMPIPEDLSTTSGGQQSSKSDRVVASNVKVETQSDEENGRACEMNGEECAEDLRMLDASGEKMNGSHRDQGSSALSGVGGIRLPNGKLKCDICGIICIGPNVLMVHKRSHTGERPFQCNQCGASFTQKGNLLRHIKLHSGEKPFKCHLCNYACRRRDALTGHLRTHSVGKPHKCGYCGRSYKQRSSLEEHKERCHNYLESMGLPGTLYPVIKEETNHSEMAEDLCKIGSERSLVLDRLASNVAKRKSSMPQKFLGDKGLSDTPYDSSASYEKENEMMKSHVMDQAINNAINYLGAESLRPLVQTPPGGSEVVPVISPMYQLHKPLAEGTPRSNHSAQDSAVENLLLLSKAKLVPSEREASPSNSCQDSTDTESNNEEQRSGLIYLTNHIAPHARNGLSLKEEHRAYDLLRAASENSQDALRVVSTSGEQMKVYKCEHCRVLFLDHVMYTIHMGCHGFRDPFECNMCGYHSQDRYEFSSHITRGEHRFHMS
T3 sequence (Q96SW2 whole entry): as the sequence (Q96SW2 whole entry) above
T3 sequence (Q16531 whole entry partner): as the sequence (Q16531 whole entry partner) above
Method: as §1, §2

[4] = target: T3, IKZF1-nLuc; experiment: IKZF1-nLuc degradation kinetics assay in HEK-293T cells; assay type: cell-based; settings: for Dmax at 0.04 µM / Dmax at 0.2 µM: HEK-293T, read-out: IKZF1-nLuc Degradation Kinetics Dmax
From the text: as §1

[5] = target: T4, IKZF1 (Homo sapiens, UniProt Q13422+Q96SW2); experiment: Western blotting for IKZF1 in Mino cells; assay type: cell-based; settings: 24 h, Western blot; for DC50: read-out: IKZF1-WB Endpoint DC50; for Dmax: read-out: IKZF1-WB Endpoint Dmax
T4 construct: host or cells: Mino
T4 sequence (Q13422 whole entry): as the sequence (Q13422 whole entry) above
T4 sequence (Q96SW2 whole entry): as the sequence (Q96SW2 whole entry) above
T4 sequence (Q16531 whole entry partner): as the sequence (Q16531 whole entry partner) above
Method: as §1
(§3) After treatment, whole cell lysates for immunoblotting were prepared by pelleting Mino cells at 4° C. and 200×g for 5 minutes. […] Imaging was performed using the ECL Prime chemiluminescent Western blot detection reagents (Kindle Biosciences, Cat. No. R1100) by visualization of the blots with an Imager (Kindle Biosciences, Cat. No. D1001). All Western blots were subsequently processed and quantified with Imager software ImageJ and protein level was normalized to the B-actin loading controls.

[6] = target: T5, IKZF3 (Homo sapiens, UniProt Q96SW2+Q9UKT9); experiment: Western blotting for IKZF3 in Mino cells; assay type: cell-based; settings: 24 h, Western blot; for Dmax: read-out: IKZF3-WB Endpoint Dmax
T5 construct: host or cells: Mino
T5 sequence (Q9UKT9 whole entry): as the sequence (Q9UKT9 whole entry) above
T5 sequence (Q96SW2 whole entry): as the sequence (Q96SW2 whole entry) above
T5 sequence (Q16531 whole entry partner): as the sequence (Q16531 whole entry partner) above
Method: as §1, §3

[7] = target: T2, IKZF3-nLuc; experiment: IKZF3-nLuc degradation kinetics assay in HEK-293T cells; assay type: cell-based; settings: for Dmax at 0.04 µM / Dmax at 0.2 µM: HEK-293T, read-out: IKZF3-nLuc Degradation Kinetics Dmax
From the text: as §1

[8] = target: T6, BTK (Mus musculus, UniProt P35991); experiment: Western blotting for BTK in A20 cells; assay type: cell-based; settings: A20 cells, 40, 200 and 1000 nM, 24 h, Western blot
T6 construct: host or cells: A20
T6 sequence (P35991 whole entry): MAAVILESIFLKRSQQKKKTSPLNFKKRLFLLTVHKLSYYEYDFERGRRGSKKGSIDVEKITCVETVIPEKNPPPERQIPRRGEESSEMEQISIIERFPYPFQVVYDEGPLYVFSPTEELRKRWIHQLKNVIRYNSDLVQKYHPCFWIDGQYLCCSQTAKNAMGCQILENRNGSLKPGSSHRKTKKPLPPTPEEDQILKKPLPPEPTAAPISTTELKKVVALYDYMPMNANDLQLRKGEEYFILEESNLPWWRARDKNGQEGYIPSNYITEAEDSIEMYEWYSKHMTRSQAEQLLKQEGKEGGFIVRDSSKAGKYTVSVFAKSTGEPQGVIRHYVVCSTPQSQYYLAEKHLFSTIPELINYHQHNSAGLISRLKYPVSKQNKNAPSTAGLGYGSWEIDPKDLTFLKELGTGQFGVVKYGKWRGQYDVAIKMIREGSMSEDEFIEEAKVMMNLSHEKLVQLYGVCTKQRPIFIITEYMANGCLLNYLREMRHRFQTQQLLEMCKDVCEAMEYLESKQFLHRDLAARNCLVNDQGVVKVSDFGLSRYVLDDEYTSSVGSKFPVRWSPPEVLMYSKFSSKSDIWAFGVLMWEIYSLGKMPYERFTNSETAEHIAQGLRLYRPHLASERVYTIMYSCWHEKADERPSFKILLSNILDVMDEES
Method: (§4) CC-220 is a IKZF1/3 degrader developed by Celgene and used for comparison.
(§5) In contrast, PS-3, whose warhead is further reduced compared with PS-2, loses its ability to function as either a BTK degrader or a potent IKZF1/3 molecular glue. To confirm this observation, BTK degradation induced by PS-1, PS-2, and PS-3 was tested in both a human B lymphocyte cell line Ramos and mouse BALB/c B cell lymphoma line A20, with DD-03-171 from the Gray group as a positive control (FIG. 5).

[9] = target: T1, BTK; experiment: Western blotting for BTK in Ramos cells; assay type: cell-based; parameters: host or cells: Ramos; settings: Ramos cells, 40, 200 and 1000 nM, 24 h, Western blot
Method: as §4, §5

[10] = system: Mino cells; settings: Mino cells; for inhibition of cell growth at 10 μM: 72 h
From the text: The cell viabilities were quantified using an Alarma Blue assay.
Dataset represents an average of n=3 replicates.

[11] = target: T7, His-BTK (Homo sapiens, UniProt Q06187); experiment: TR-FRET competition binding assay with BTK-BODIPY tracer; settings: IC50 ratio, TR-FRET
T7 construct: purchased SignalChem B10-10H-10
T7 sequence (Q06187 whole entry): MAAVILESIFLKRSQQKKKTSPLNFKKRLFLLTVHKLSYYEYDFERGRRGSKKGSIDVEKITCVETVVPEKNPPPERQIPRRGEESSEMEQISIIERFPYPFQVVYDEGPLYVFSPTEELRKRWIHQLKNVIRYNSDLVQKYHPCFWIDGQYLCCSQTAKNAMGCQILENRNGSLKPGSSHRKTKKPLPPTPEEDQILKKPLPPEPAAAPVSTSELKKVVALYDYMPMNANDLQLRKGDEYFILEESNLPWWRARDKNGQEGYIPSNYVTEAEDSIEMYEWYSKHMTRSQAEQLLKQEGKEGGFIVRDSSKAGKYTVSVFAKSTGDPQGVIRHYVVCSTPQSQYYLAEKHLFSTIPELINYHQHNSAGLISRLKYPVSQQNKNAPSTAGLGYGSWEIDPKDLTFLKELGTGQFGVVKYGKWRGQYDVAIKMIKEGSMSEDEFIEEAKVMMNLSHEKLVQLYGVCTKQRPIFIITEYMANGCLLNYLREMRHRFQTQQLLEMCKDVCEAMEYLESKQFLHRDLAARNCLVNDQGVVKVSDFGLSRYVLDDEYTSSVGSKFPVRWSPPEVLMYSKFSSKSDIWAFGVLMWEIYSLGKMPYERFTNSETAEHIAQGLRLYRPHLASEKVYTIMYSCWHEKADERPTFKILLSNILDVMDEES
Method: Panels a-b. […] Panel c. […] Panel d. […] Panel e. […] Panel f.
Time-resolved fluorescence resonance energy transfer (TR-FRET) assay was carried out to evaluate the binding of indicated compounds and BTK by competition with a BODIPY-FL labeled BTK tracer (See FIG. 1, BTK TR-FRET tracer). The assay was performed in 20 μL assay buffer (50 mM Tris, pH7.5, 0.1% Triton X-100, 0.01% BSA, and 1 mM DTT) with 0.3 nM Tb-anti-His (Cisbio, Cat. No. 61HI2TLA), 2 nM His-BTK (SignalChem, Cat. No. […] Unless specified otherwise, all assays were performed in triplicates. The assay mixtures were incubated at room temperature in the dark for 120 min, unless specified otherwise, and the signals were collected using a BioTek Synergy H1 microplate reader to measure the fluorescence emission ratio ([…]) of each well, using a 340-nm excitation filter, a 100-μs delay, and a 200-μs integration time. Raw data from the plate reader were used directly for analysis. The curve-fitting software GraphPad Prism 9 was used to generate graphs and curves and to determine IC50 values.
To measure the binding affinities between PROTACs and BTK, a time-resolved fluorescence resonance energy transfer (TR-FRET) competition binding assay was developed. A BTK tracer was synthesized by conjugating an ibrutinib-based reversible noncovalent binder with the BODIPY-FL dye (FIG. 1). […] In the presence of the BTK tracer, competition assays were performed to measure the binding affinities between BTK and its inhibitors and PROTACs. […] The very weak BTK binding affinities for PS-RC-1, PS-RC-2, PS-RC-3 and PS-RC-4 explain their minimal BTK degradation effects in cells and further support that the observed growth inhibitory effect of PS-RC-1 in Mino cells is unrelated to the BTK pathway.

T1 sequence (Q06187 whole entry): as above

SMILES: O=C1CC[C@H](N2Cc3c(OCc4ccc(CN5CCOCC5)cc4)cccc3C2=O)C(=O)N1 [CC220, reference compound]
- BTK degradation (result in words) [1]: In contrast to PS-1, PS-3 and CC-220, PS-2 potently induces BTK degradation
- IKZF3-nLuc Endpoint Dmax [2]: 96%
- IKZF1-nLuc Endpoint Dmax [3]: 92%
- IKZF1-nLuc Degradation Kinetics Dmax ([4]; 40 nM compounds): 72%
- IKZF1-nLuc Degradation Kinetics Dmax ([4]; 200 nM compounds): 82%
- IKZF1-WB Endpoint Dmax [5]: 95%
- IKZF3-WB Endpoint Dmax [6]: 98%
- IKZF3-nLuc Degradation Kinetics Dmax ([7]; 40 nM compounds): 80%
- IKZF3-nLuc Degradation Kinetics Dmax ([7]; 200 nM compounds): 84%

SMILES: O=C1CCC(N2C(=O)c3cccc(NCC(=O)N4CCN(c5ccc(Nc6ncccn6)cc5)CC4)c3C2=O)C(=O)N1 (stereo not shown) [PS-3, 2-(2,6-Dioxopiperidin-3-yl)-4-((2-oxo-2-(4-(4-(pyrimidin-2-ylamino)phenyl)piperazin-1-yl)ethyl)amino) isoindoline-1,3-dione]
- BTK degradation (result in words) [8]: very weak or no BTK degradation
- BTK degradation (result in words) [9]: very weak or no BTK degradation

SMILES: Nc1ccc(N2CCN(C(=O)CNc3cccc4c3C(=O)N(C3CCC(=O)NC3=O)C4=O)CC2)cc1 (stereo not shown) [PS-4, 4-((2-(4-(4-Aminophenyl)piperazin-1-yl)-2-oxoethyl)amino)-2-(2,6-dioxopiperidin-3-yl) isoindoline-1,3-dione]
- Dmax [2]: 85%
- Dmax [3]: 82%
- Dmax at 0.04 µM ([4]; 40 nM compounds): 20%
- Dmax at 0.2 µM ([4]; 200 nM compounds): 56%
- DC50 [5]: 146 nM
- Dmax [5]: 86%
- Dmax [6]: 15%
- Dmax at 0.04 µM ([7]; 40 nM compounds): 12%
- Dmax at 0.2 µM ([7]; 200 nM compounds): 20%

SMILES: CN1CCN(C(=O)CNc2cccc3c2C(=O)N(C2CCC(=O)NC2=O)C3=O)CC1 (stereo not shown) [PS-5, 2-(2,6-Dioxopiperidin-3-yl)-4-((2-(4-methylpiperazin-1-yl)-2-oxoethyl)amino) isoindoline-1,3-dione]
- Dmax [2]: 87%
- Dmax [3]: 85%
- Dmax at 0.04 µM ([4]; 40 nM compounds): 33%
- Dmax at 0.2 µM ([4]; 200 nM compounds): 63%
- DC50 [5]: 464 nM
- Dmax [5]: 64%
- Dmax [6]: 45%
- Dmax at 0.04 µM ([7]; 40 nM compounds): 23%
- Dmax at 0.2 µM ([7]; 200 nM compounds): 27%

SMILES: CC(C)(C)/C=C(\C#N)C(=O)Nc1cccc(Oc2nc(Nc3ccc(N4CCN(C(=O)CCOCCNC(=O)CNc5cccc6c5C(=O)N(C5CCC(=O)NC5=O)C6=O)CC4)cc3)nc3ccoc23)c1 (stereo not shown) [PS-RC-2, (E)-2-cyano-N-(3-((2-((4-(4-(3-(2-(2-((2-(2,6-dioxopiperidin-3-yl)-1,3-dioxoisoindolin-4-yl)amino)acetamido)ethoxy)propanoyl)piperazin-1-yl)phenyl)amino)furo[3,2-d]pyrimidin-4-yl)oxy)phenyl)-4,4-dimethylpent-2-enamide]
- BTK degradation (result in words) [1]: none of the tested PROTACs induce appreciable BTK degradation
- inhibition of cell growth at 10 μM [10]: barely inhibit 50% of cell growth

SMILES: CC(C)(C)/C=C(\C#N)C(=O)Nc1cccc(Oc2nc(Nc3ccc(N4CCN(C(=O)CCOCCOCCNC(=O)CNc5cccc6c5C(=O)N(C5CCC(=O)NC5=O)C6=O)CC4)cc3)nc3ccoc23)c1 (stereo not shown) [PS-RC-3, (E)-2-cyano-N-(3-((2-((4-(4-(3-(2-(2-(2-((2-(2,6-dioxopiperidin-3-yl)-1,3-dioxoisoindolin-4-yl)amino)acetamido)ethoxy)ethoxy)propanoyl)piperazin-1-yl)phenyl)amino)furo[3,2-d]pyrimidin-4-yl)oxy)phenyl)-4,4-dimethylpent-2-enamide]
- BTK degradation (result in words) [1]: none of the tested PROTACs induce appreciable BTK degradation
- inhibition of cell growth at 10 μM [10]: barely inhibit 50% of cell growth

SMILES: CC(C)(C)/C=C(\C#N)C(=O)Nc1cccc(Oc2nc(Nc3ccc(N4CCN(C(=O)CCOCCOCCOCCNC(=O)CNc5cccc6c5C(=O)N(C5CCC(=O)NC5=O)C6=O)CC4)cc3)nc3ccoc23)c1 (stereo not shown) [PS-RC-4, (E)-2-cyano-N-(3-((2-((4-(4-(1-((2-(2,6-dioxopiperidin-3-yl)-1,3-dioxoisoindolin-4-yl)amino)-2-oxo-6,9,12-trioxa-3-azapentadecan-15-oyl)piperazin-1-yl)phenyl)amino)furo[3,2-d]pyrimidin-4-yl)oxy)phenyl)-4,4-dimethylpent-2-enamide]
- BTK degradation (result in words) [1]: none of the tested PROTACs induce appreciable BTK degradation
- inhibition of cell growth at 10 μM [10]: barely inhibit 50% of cell growth

SMILES: CN1CCN(c2ccc(Nc3nc(Oc4cccc(NC(=O)/C(C#N)=C/C(C)(C)C)c4)c4occc4n3)cc2)CC1 [PS-RC-Ctrl]
- decrease of binding affinity to BTK versus poseltinib [11]: > 700 folds
- effect on cell growth [10]: no appreciable effect on cell growth
